The test system of data set [1] is Mixed primary cultures (Colon). To be noted: 10 mM, 2-4 hours; Active GLP-1 ELISA-kit (Millipore); cited from earlier work. For orientation: In an ELISA, binding on a coated surface is turned into a signal by an enzyme label.
Data set [2] concerns Mixed primary cultures (upper half of SI). To be noted: 10 mM, 2-4 hours; Active GLP-1 ELISA-kit (Millipore); cited from earlier work.
The subject of data set [3] is Endoscopic duodenal biopsies. Particulars: 300 mM, Intraduodenal Glucose Infusion, 30 min; GLP-1 (Active) ELISA Kit (Millipore); cited from earlier work.
Data set [4] deals with GLUTag Cells. Particulars: 250 uM, 36 minutes; Active GLP-1 (ver. 2) Assay Kit (Mesoscale Discovery); cited from earlier work.
Data set [5] concerns intestinal microvascular endothelium. Nature of the data set: TNF-α stimulation of microvasculature alone: chemokine release. The class given is cell-based, human. On the set-up: unit not given here. Particulars: TNF-α 100 U/ml, n = 1, 4 chips/condition. The source says: (§1) Identification of MadCAM1 and characterization of microvascular response to inflammation in Ileum-Chip. Inflammation-Induced Expression of I-CAM1 and MadCAM1 in Ileum-Chip. Read-outs: mRNA expression of vascular adhesion molecules (I-CAM1, MadCAM1); Immunofluorescent detection of I-CAM1 and MadCAM1; Epithelial and vascular release of inflammatory chemokines using ELISA (Meso Scale Discovery). FIG. 13. FIG. 14.

For data set [6], the system named is Ileum-Chip. Nature of the data set: TNF-α induced inflammation in Ileum-Chip: chemokine release (ELISA) and I-CAM1/MadCAM1 expression. The class given is cell-based, human. On the set-up: Apical CXCL11 (1-TAC) / Apical CCL20 (MIP-3 alpha) / Basal CCL25 (TECK) / Basal CXCL8 (IL-8) / Basal CXCLIO (IP-10) / Basal CXCL11 (1-TAC) / Basal CCL20 (MIP-3 alpha) / Apical CCL25 (TECK) / Apical CXCL8 (IL-8) / Apical CXCLIO (IP-10): unit not given here.
Description: (§2) TNFα induces increased membrane expression of I-CAM1 and MadCAM1 in intestinal microvascula endothelium.
as §1
Summary of Evaluation of Microvascular Function in Ileum-Chip.

Data set [7] has as its system Ileum-Chip. Nature of the data set: Intestinal barrier function of Ileum-Chip under TNF-α. Format: cell-based, human. To be noted: vascular exposure, 100 U/ml (~2 ng/ml). As for the experimental part:
As one example, to evaluate the integrity of the intestinal barrier 3 kDa Cascade Blue dextran (Sigma, D7132) was added to the epithelial compartment of the Duodenum-Chip at 0.1 mg/ml on the day of connecting a microfluidic device to flow, e.g., see exemplary timelines. Effluents of the endothelial compartment were sampled 3 hours after the addition of a dye, up to 24 hours, up to 48 hours, up to 72 hours, or at 48 hour intervals until the end of the assay, in order to determine the concentration of dye that has diffused through the membrane.
The apparent paracellular permeability (Papp) was calculated based on a standard curve and using the following formula: […]
as §2

Data set [8] deals with T1, MDR1 (P-gp) (Homo sapiens, UniProt P08183). To be noted: 22 μM. The procedure: (§3) To evaluate the applicability of this system for the studies of pharmacology related questions we assessed the presence and localization of major intestinal drug transporters in Duodenum-Chips established from the tissue of 3 different donors by qRT-PCR and immunofluorescent imaging.
(§4) The transporter activity of MDR-1/P-gp was assessed using the MDR1 Efflux Assay Kit (e.g., ECM910, Millipore), as per manufacturer's instructions. […] Intracellular accumulation of dye, was detected by fluorescent imaging (Olympus IX83) and measured in the presence and absence of MDR-1 specific inhibitor vinblastine (22 μM). At least three independent experiments were performed for Caco2 Intestine-Chips and Duodenum-Chips, each using chips established from a different donor of biopsy-derived organoids. At least three different chips were used per condition, images of each were taken at three different fields of view, digitally processed and quantified using Fiji software.

Data set [9] addresses T1, MDR1 (P-gp). Particulars: 22 μM. As for the experimental part: as §3, §4
This is another data set of the same source.

In data set [10] the test system is Small Intestinal Organoids. To be noted: 30 uM DCA, 2 hours; GLP-1 (Active) assay; cited from earlier work.
The mark [11] stands for this setting: TNF-α 100 U/ml, n = 1, 4 chips/condition.

Where two headings read alike, the source gives them in different places.

T1 sequence (P08183 whole entry): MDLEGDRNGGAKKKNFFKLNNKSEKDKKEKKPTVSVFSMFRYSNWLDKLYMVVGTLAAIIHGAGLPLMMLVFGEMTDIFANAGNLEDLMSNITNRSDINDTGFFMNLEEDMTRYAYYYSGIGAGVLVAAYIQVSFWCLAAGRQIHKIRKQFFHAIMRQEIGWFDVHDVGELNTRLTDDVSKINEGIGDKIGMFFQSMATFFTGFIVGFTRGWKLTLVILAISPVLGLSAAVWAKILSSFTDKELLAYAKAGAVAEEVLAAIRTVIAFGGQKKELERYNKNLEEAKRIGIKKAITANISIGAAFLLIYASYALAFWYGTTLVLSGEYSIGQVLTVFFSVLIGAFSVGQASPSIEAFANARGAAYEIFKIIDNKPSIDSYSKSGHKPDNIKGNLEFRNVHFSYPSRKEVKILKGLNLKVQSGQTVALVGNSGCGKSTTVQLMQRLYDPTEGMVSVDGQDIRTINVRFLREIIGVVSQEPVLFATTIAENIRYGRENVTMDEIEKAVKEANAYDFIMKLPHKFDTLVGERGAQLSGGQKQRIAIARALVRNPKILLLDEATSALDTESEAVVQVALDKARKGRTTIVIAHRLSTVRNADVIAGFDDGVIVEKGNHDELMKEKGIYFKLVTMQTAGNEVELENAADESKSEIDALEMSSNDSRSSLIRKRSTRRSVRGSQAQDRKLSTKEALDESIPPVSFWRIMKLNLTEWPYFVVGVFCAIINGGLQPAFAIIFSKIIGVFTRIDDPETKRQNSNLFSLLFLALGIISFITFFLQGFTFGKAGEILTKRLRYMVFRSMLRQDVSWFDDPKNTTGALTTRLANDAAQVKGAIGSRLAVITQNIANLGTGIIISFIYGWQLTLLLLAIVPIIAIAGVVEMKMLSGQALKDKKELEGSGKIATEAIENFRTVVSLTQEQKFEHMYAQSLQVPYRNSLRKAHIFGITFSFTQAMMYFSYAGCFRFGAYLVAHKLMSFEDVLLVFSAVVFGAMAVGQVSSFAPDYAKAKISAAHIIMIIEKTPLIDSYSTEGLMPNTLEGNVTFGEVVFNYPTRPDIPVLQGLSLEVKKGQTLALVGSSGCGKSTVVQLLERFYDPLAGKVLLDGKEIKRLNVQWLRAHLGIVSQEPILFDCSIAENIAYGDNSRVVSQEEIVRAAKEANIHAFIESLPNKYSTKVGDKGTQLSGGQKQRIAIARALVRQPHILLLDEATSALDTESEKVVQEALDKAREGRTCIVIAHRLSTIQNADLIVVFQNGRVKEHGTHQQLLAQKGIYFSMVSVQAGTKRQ

Consider `OC[C@H]1OC(O)[C@H](O)[C@@H](O)[C@@H]1O` (stereo partly drawn) [Glucose], for which the “GLP-1 Concentration (fold increase), Colon” value in [1] is 10-fold increase. Moreover, in [2], the “GLP-1 Concentration (fold increase), SI” value is “(Colon), 2-fold”. Besides, the “GLP-1 Concentration (fold increase)” value in data set [3] is on record as 3-fold increase.

As for `CCCCCCCC/C=C\CCCCCCCC(=O)O` [Oleic Acid], the “GLP-1 Concentration (fold increase)” value in data set [4] is 4-fold increase.

As for TNF-α, in data set [5], the “Apical CCL20 (MIP-3 alpha)” value is listed as 0.74 ±0.9, the “Apical CXCL8 (IL-8)” value was 105.5 ± 74.2, the “Apical CXCL11 (1-TAC)” value amounted to 0.53 ± 1.0 and the “Apical CXCLIO (IP-10)” value amounted to 0.19 ± 0.1. In [5], the “Basal CCL20 (MIP-3 alpha)” value was 3.51 ± 2.8, the “Basal CXCL8 (IL-8)” value was 1835.44 ± 282.8, the “Basal CXCL11 (1-TAC)” value was 1.74 ± 1.4 and the “Basal CXCLIO (IP-10)” value is 35.22 ± 20.1. Further, the “membrane expression of I-CAM1 and MadCAM1 in intestinal microvascular endothelium” value in [6] (100 U/ml) is on record as “increased”. Besides, in [6] (setting [11]), the “Apical CCL20 (MIP-3 alpha)” value is 170.92 ± 36.8, the “Apical CCL25 (TECK)” value was determined as 17.11 ± 9.2, the “Apical CXCL8 (IL-8)” value worked out at 16.30 ± 5.9 and the “Apical CXCL11 (1-TAC)” value amounted to 302.01 ± 111.8. In [6] (setting [11]), the “Apical CXCLIO (IP-10)” value is on record as 6.34 ± 2.3, the “Basal CCL20 (MIP-3 alpha)” value is reported as 93.93 ± 18.3, the “Basal CCL25 (TECK)” value is reported as 117.91 ± 16.1 and the “Basal CXCL8 (IL-8)” value is 1868.99 ± 198.7. Moreover, in [6] (setting [11]), the “Basal CXCL11 (1-TAC)” value worked out at 26.00 ± 9.1 and the “Basal CXCLIO (IP-10)” value is 502.04 ± 287.1. For the same compound, in data set [7], the “effect on intestinal barrier function” value was “does not affect”.

Consider `CC[C@]1(O)C[C@@H]2CN(CCc3c([nH]c4ccccc34)[C@@](C(=O)OC)(c3cc4c(cc3OC)N(C)[C@H]3[C@@](O)(C(=O)OC)[C@H](OC(C)=O)[C@]5(CC)C=CCN6CC[C@]43[C@@H]65)C2)C1` [vinblastine], for which the “increase in intracellular accumulation of rhodamine 123” value in [8] stood at 2.14 fold; in data set [9], 1.84 fold.

Regarding `C[C@H](CCC(=O)O)[C@H]1CC[C@H]2[C@@H]3CC[C@@H]4C[C@H](O)CC[C@]4(C)[C@H]3C[C@H](O)[C@]12C` [DCA], the “GLP-1 Concentration (fold increase)” value in data set [10] was 2.5-fold increase.

These data come from patent publication US20200224136A1, “INTESTINE-CHIP: DIFFERENTIAL GENE EXPRESSION MODEL” (priority 2019, published 2020).
